# “Also recorded” adds a separate entry of the source.
# Experiments:
# serum TNF-α = experiment: Adjuvant induced arthritis model, serum TNF-α; type: in vivo, Sprague Dawley rats; conditions: AIA rats, daily intraperitoneal; Patuletin 25 mg/kg, indomethacin 5 mg/kg
# Protocol: (§1) All studies were carried out using Female Sprague Dawley (SD) rats weighing 150-250 gms. Animals were kept at 21±2° C. and on a 12-h light/dark cycle, received standardized pelleted diet and tap water. Experiments were performed under the ethical guidelines of the International Association for the study of pain in conscious animals. Each group contains 12 animals with randomly distributed weights into each treatment group.
# (§2) Arthritis was induced by injecting freshly prepared 100 μL of 1 mg suspension of lyophilized Mycobacterium tuberculosis H37Ra (MT H37Ra; DIFCO Laboratories, Detroit, Mich., USA), subcutaneously at the rat tail base using sterile hypodermic needle. Inoculation was carried out under anesthesia with a combination of 20 mg/kg ketamine and 5 mg/kg xylazine, injected intraperitoneally. Compound and the reference drug were administered daily, intraperitoneally using sterile syringes. The positive control received vehicle (5% DMSO+PBS) or saline only; treatment groups received test compounds (25 mg/kg), whereas reference group received indomethacin (5 mg/kg). The doses of the test compounds were selected after preliminary dose finding studies. […]
# (§3) The quantitative measurement of TNF-α and IL-1β was done in serum of all groups of animals including arthritic and non-arthritic using commercial ELISA assay kits (Abcam, USA) according to the manufacturer's instructions. […]
# serum IL-1β = experiment: Adjuvant induced arthritis model, serum IL-1β; type: in vivo, Sprague Dawley rats; conditions: AIA rats, daily intraperitoneal; Patuletin 25 mg/kg, indomethacin 5 mg/kg
# Protocol: as §1, §2, §3
# serum nitric oxide = experiment: Adjuvant induced arthritis model, serum nitric oxide; type: in vivo, Sprague Dawley rats; conditions: AIA rats, daily intraperitoneal; Patuletin 25 mg/kg, indomethacin 5 mg/kg
# Protocol: as §1
# (§4) Arthritis was induced by injecting freshly prepared 100 μL of 1 mg suspension of lyophilized Mycobacterium tuberculosis H37Ra (MT H37Ra; DIFCO Laboratories, Detroit, Mich., USA), subcutaneously at the rat tail base using sterile hypodermic needle. […]
# (§5) Peroxide (PO) and nitric oxide (NO), in serum were determined in the serum samples of both the normal and arthritic groups, using quantitative colorimetric assay kits, i.e., the Quantichrom ™ Nitric Oxide Assay Kit, and the Quantichrome™ Peroxide assay kit Diox-250 (BioAssay Systems, Hayward, Calif., USA). […] The samples were analyzed in duplicates using 96-well plate and the plate was read at 540 nm. The Quantichrome™ Peroxide assay kit Diox −250 system is an improved method which utilizes the oxidation of Fe^++ by peroxide present in the analyzed sample resulting in formation of purple complex that gives the accurate measure of peroxide level in the sample when read at 540-610 nm.
# serum peroxide = experiment: Adjuvant induced arthritis model, serum peroxide; type: in vivo, Sprague Dawley rats; conditions: AIA rats, daily intraperitoneal; Patuletin 25 mg/kg, indomethacin 5 mg/kg
# Protocol: as §1, §4, §5
# rheumatoid factor = experiment: Adjuvant induced arthritis model, serum RA factor; type: in vivo, Sprague Dawley rats; conditions: AIA rats, daily intraperitoneal; Patuletin 25 mg/kg, indomethacin 5 mg/kg
# Protocol: as §1
# Arthritis was induced by injecting freshly prepared 100 μL of 1 mg suspension of lyophilized Mycobacterium tuberculosis H37Ra (MT H37Ra; DIFCO Laboratories, Detroit, Mich., USA), subcutaneously at the rat tail base using sterile hypodermic needle. Inoculation was carried out under anesthesia with a combination of 20 mg/kg ketamine and 5 mg/kg xylazine, injected intraperitoneally. Compound and the reference drug were administered daily, intraperitoneally using sterile syringes. […]
# Measurement of RA factor in rat serum was determined using Tina-quant RFII Kit (Roche Diagnostics, USA) and automated analyzers according to manufacturer's instructions. The test principle involves the reaction of latex bound heat inactivated IgG (antigen) with RF antibodies in the sample to form Ag/Ab complex resulting in agglutination which can be measured turbidimetrically.
# [1] = system: knee joints of arthritic rats; experiment: Adjuvant induced arthritis model, histopathology of knee joints (H & E); type: in vivo, Sprague Dawley rats; conditions: H & E staining
# Protocol: as §1
# Arthritis was induced by injecting freshly prepared 100 μL of 1 mg suspension of lyophilized Mycobacterium tuberculosis H37Ra (MT H37Ra; DIFCO Laboratories, Detroit, Mich., USA), subcutaneously at the rat tail base using sterile hypodermic needle. Inoculation was carried out under anesthesia with a combination of 20 mg/kg ketamine and 5 mg/kg xylazine, injected intraperitoneally. Compound and the reference drug were administered daily, intraperitoneally using sterile syringes. The positive control received vehicle (5% DMSO+PBS) or saline only; treatment groups received test compounds (25 mg/kg), whereas reference group received indomethacin (5 mg/kg). The doses of the test compounds were selected after preliminary dose finding studies. The treatment was started on the same day after vaccination.
# The animals were sacrificed at the end of the experiment and samples were taken from the knee joints. Sample fixation were done using 10% formalin following decalcification. The samples were then processed, embedded, cut, mounted and stained with hematoxylin and eosin (H & E) dye for microscopic evaluation.
# [2] = system: ROS production from human peripheral whole blood phagocytes; experiment: Luminol enhanced chemiluminescence oxidative burst, whole blood; type: cell-based; conditions: luminol enhanced, serum opsonized zymosan, read-out: Myeloperoxidase dependent Oxidative Burst (IC50 μg/mL) Whole blood
# Protocol: (§6) Intracellular effect was determined using human peripheral whole blood phagocytes and isolated neutrophils and from mice peritoneum macrophages, where luminol-enhanced chemillumenescence assay was applied. The effect on myeloperoxidase independent ROS production was determined using lucigenin on murine macrophages RAW.267 cells.
# (§7) Table 2. […] 267 cells (murine macrophages). DPI is used as standard drug. Reading presents mean±SD of three determinations.
# (§8) Luminol enhanced chemiluminescence technique was applied to study the effect of compound on ROS from phagocytes, Using whole blood, neutrophil and macrophages Briefly, 25 μL diluted whole blood (1:50 dilution in sterile HBSS^++) or 25 μL of PMNs (1×10^6), or 25 μL of isolated macrophages (1×10^6) were incubated with 25 μL of compound in triplicates and using three different concentrations (1, 10 and 100 μg/mL) using white 96 wells plates. Wells received HBSS^++ and cells only without compound served as positive control. 25 μL of serum opsonized zymosan-A (SOZ), followed by 25 μL luminol (7×10^−5 M), was added to each well to maintain a volume of 100 μL/well. Plates were then incubated at 37° C. for 30 minutes in the thermostated chamber of the luminometer. Results were monitored as relative light unit (RLU) reading, with peak and total integral values set with repeated scans at 60 seconds intervals, and 1 second points measuring time.
# [3] = system: ROS production from human neutrophils; experiment: Luminol enhanced chemiluminescence oxidative burst, isolated neutrophils; type: cell-based; conditions: Neutrophil, serum opsonized zymosan, read-out: Myeloperoxidase dependent Oxidative Burst (IC50 μg/mL) Neutrophils
# Protocol: as §6, §7
# Heparinized blood was obtained by vein puncture aseptically, from healthy volunteers (25-38 years age). The buffy coat containing polymorhonuclear neutrophils (PMNs) was collected by dextran sedimentation, and cells were isolated after the LSM density gradient centrifugation. […]
# as §8, with “Wells received HBSS^++ and cells only without compound served as positive control. 25 μL of serum opsonized zymosan-A (SOZ), followed by 25 μL luminol (7×10^−5 M), was added to each well to maintain a volume of 100 μL/well. Plates were then incubated at 37° C. for 30 minutes in the thermostated chamber of the luminometer.” left out
# [4] = system: ROS production from mice peritoneal macrophages; experiment: Luminol enhanced chemiluminescence oxidative burst, mice peritoneal macrophages; type: cell-based; conditions: Mus musculus, Peritoneal macrophage, serum opsonized zymosan, read-out: Myeloperoxidase dependent Oxidative Burst (IC50 μg/mL) Macrophages
# Protocol: as §6, §7
# NMRI mice of 25 to 30 gm weight were injected aseptically with 1 mL of heat inactivated fetal bovine serum (FBS) in the peritoneum cavity, using sterile 1 mL syringe and mice were kept for further 72 h. […] Cells were counted and concentration was adjusted to 1×10^6/mL for chemiluminescence assay.
# as §8, with “Wells received HBSS^++ and cells only without compound served as positive control. 25 μL of serum opsonized zymosan-A (SOZ), followed by 25 μL luminol (7×10^−5 M), was added to each well to maintain a volume of 100 μL/well. Plates were then incubated at 37° C. for 30 minutes in the thermostated chamber of the luminometer.” left out
# [5] = system: PHA activated T cells isolated from human peripheral blood; experiment: Thymidine incorporation T cell proliferation assay (PHA activated); type: cell-based; conditions: 72 h
# Protocol: Heparinized blood was obtained by vein puncture aseptically from healthy volunteers (25-38 years age). Blood (10 mL) was mixed with incomplete RPMI, layered on 5 mL of Lymphocyte separation medium and centrifuged at 400 g for 20 min at room temperature. Buffy layer was collected and mixed with incomplete RPMI and centrifuged at 4° C. for 10 min at 300 g. Cells were obtained after the RBCs (if any) lysis using hypotonic solution, and washed at 4° C. for 10 min at 300 g. The cells were then suspended in complete RPMI containing 5% FBS and their concentration was adjusted to 2×10^6 cells/mL for T-cell proliferation assay.
# Cell proliferation assay was conducted through standard thymidine incorporation technique. Briefly, isolated T-cells from peripheral blood of healthy individuals were plated at a concentration of 2×10^6 cells/mL in a round bottom 96-well tissue culture plates. Cells were stimulated with 7.5 μg/mL of PHA. […] The plate was then incubated for 72 hours at 37° C. in 5% CO2 incubator. After 72 hours, cultures were pulsed with 0.5 μCi/well tritiated thymidine (Amersham Pharmacia Biotech), and further incubated for 18 h. Cells were harvested onto a glass fiber filters using cell harvester (Innotech, Dottikon, Switzerland). The level of the thymidine incorporated into the cells was measured by a liquid scintillation counter (LS 6500, Beckman Coulter, Fullerton, Calif., USA). Results were expressed as mean count per minute (CPM). The inhibitory activity of compounds on T-lymphocyte proliferation was calculated using the following formula: […]
# TNF-α production = TNF-α production from PMA differentiated, LPS activated THP-1 cells (ELISA); type: cell-based, human; conditions: 4 h
# Protocol: The symbol * and δ represents the P≦0.03 and P≦0.006, respectively.
# FIG. 2 depicts the effect of pentoxyfillin (PTX) on TNF-α production (pg/mL) Human monocytic leukemia THP-1 cells were differentiated and activated with 20 ng/mL of PMA and 50 ng/mL of LPS, respectively and incubated with different concentrations of PTX for 4h, the supernatant was analyzed for the level of TNF-α by ELISA. The symbol * represents P≦of 0.03.
# THP-1 (human monocytic leukemia) cells were maintained in RPMI-1640 supplemented with 10% FBS, 2 mmol/L glutamine, 5.5 mmol/L glucose, 50 μmol/L mercaptoethanol, 1 mmol/L sodium pyruvate, and 10 mmol/L HEPES and incubated at 37° C. in 5% CO2. Cells were grown in […] culture flask until they attained 70% confluency. Cells were then plated in 24-well tissue culture plates at a concentration of 2.5×10^5 cells/mL. Cells were differentiated into macrophages using PMA at a final concentration of 20 ng/mL and further incubated at 37° C. in 5% CO2 environment for 24 h. […] After addition of the compound cells were then incubated for 4 h for TNF-α production and 18 h for IL-1β production at 37° C. in 5% CO2. The supernatants were harvested and analyzed for the level of TNF-α and IL-1β, by human TNF-α and IL-1β Duo set ELISA kits, and according to the manufacturer's instructions.
# [6] = system: ROS production from PMA activated RAW. 267 cells (murine macrophages); experiment: Lucigenin enhanced (myeloperoxidase independent) oxidative burst; type: cell-based; conditions: lucigenin enhanced, PMA activated RAW. 267 cells
# Protocol: as §6, with “cells. […] Table 2. […] 267 cells (murine macrophages). DPI is used as standard drug. Reading presents mean±SD of three determinations.” for “cells.”
compound,measurement,setting,value
"COc1ccc2c(c1)c(CC(=O)O)c(C)n2C(=O)c1ccc(Cl)cc1 [Indomethacin, reference compound]",level of TNF-α in serum versus arthritic control group,serum TNF-α,marked decrease
same,level of IL-1β in serum versus arthritic control group,serum IL-1β,significant decrease; also recorded: marked decrease
same,level of nitric oxide in serum versus arthritic control group,serum nitric oxide,marked reduction; also recorded: significant decrease
same,level of peroxide in serum versus arthritic control group,serum peroxide,decrease; also recorded: non-significant reduction
same,level of RA factor (rheumatoid factor) in serum versus arthritic control group,rheumatoid factor,marked decrease
same,histopathology of knee joints (in words) versus arthritic control rats,[1],less infiltration of lymphocytes and minimal bone destruction
same,histopathology score of knee joints,"[1]; normal control score 0, arthritic control score 4",2
"CC(C)Cc1ccc(C(C)C(=O)O)cc1 (centres unmarked) [Ibuprofen, reference compound]",IC50,[2],11.2 ± 1.9 µg/mL
same,IC50,[3],2.5 ± 0.6 µg/mL
same,IC50,[4],16.9 ± 2.5 µg/mL
C[C@]12C=CC(=O)C=C1CC[C@@H]1[C@@H]2[C@@H](O)C[C@@]2(C)[C@H]1CC[C@]2(O)C(=O)CO [Prednisolone],Human T cell proliferation (IC50 μg/mL),[5],<0.62 µg/mL
same,IC50,"[5]; Homo sapiens, T-cell, read-out: Human T cell proliferation (IC50 μg/mL)",< 0.62 µg/mL
"CC(=O)CCCCn1c(=O)c2c(ncn2C)n(C)c1=O [pentoxyfillin, reference compound]",inhibition of TNF-α production (IC50),TNF-α production,94.8 µg/mL
"[Cl-].c1ccc2c(c1)[I+]c1ccccc1-2 [DPI, reference compound]",Myeloperoxidase independent Oxidative Burst (IC50 μg/mL) on macrophages,[6],1.6 ± 0.1 µg/mL
